Results as given in patent publication US20250145606A1 (Arcus Biosciences, Inc., priority 2023, published 2025).

What was measured:
[1] = target: c-Kit (Homo sapiens (Human), UniProt P10721); assay: Inhibition of c-Kit kinase activity (HTRF KinEASE-TK); format: biochemical; conditions: biochemical, HTRF KinEASE-TK
Outline: (§1)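 Recombinant kinases (2 nM CSF1R and c-Kit, 10 nM PDGFRα/β, 2× working) preincubated 1 h with compound in 50 mM HEPES pH 7.4, 5 mM MgCl2 (c-Kit) or 10 mM (others), 2 mM MnCl2; 2× ATP: c-Kit 16 μM, PDGFRα 1 μM, PDGFRβ 40 μM, CSF1R 20 μM. 120 min reaction at rt; TR-FRET 665/620 nm; IC50 by 4-parameter fit.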

[2] = target: PDGFRα (Homo sapiens (Human), UniProt P16234); assay: Inhibition of PDGFRα kinase activity (HTRF KinEASE-TK); conditions: biochemical, HTRF KinEASE-TK
Sequence of PDGFRα (P16234 24-1089): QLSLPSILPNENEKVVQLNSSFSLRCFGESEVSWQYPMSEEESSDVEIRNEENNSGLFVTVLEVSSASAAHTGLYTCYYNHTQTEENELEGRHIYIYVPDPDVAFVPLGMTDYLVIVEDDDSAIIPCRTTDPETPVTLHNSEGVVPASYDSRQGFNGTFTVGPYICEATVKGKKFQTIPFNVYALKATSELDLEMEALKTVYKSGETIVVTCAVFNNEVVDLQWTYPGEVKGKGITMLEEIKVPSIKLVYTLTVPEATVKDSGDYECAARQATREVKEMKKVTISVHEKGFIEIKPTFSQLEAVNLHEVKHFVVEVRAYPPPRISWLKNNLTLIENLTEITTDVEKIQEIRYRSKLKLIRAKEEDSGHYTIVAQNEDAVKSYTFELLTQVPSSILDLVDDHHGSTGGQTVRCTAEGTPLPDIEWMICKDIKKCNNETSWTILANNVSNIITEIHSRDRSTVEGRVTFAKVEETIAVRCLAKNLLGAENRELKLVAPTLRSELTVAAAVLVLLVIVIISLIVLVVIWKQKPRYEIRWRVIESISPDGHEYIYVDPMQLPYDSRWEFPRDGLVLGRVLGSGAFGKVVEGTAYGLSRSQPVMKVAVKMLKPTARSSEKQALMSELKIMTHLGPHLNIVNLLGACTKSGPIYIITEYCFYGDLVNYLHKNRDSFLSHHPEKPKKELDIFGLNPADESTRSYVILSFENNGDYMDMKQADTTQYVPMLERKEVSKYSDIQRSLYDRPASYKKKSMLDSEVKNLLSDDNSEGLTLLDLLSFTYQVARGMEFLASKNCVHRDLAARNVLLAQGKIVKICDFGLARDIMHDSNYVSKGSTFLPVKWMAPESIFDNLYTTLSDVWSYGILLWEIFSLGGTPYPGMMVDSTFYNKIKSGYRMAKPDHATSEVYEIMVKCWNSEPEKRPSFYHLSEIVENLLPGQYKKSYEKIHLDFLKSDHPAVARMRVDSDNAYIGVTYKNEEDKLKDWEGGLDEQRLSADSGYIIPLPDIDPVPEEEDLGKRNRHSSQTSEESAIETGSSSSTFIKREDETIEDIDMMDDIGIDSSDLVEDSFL
Outline: as §1

[3] = target: PDGFRβ (Homo sapiens (Human), UniProt P09619); assay: Inhibition of PDGFRβ kinase activity (HTRF KinEASE-TK); conditions: biochemical, HTRF KinEASE-TK
Sequence of PDGFRβ (P09619 33-1106): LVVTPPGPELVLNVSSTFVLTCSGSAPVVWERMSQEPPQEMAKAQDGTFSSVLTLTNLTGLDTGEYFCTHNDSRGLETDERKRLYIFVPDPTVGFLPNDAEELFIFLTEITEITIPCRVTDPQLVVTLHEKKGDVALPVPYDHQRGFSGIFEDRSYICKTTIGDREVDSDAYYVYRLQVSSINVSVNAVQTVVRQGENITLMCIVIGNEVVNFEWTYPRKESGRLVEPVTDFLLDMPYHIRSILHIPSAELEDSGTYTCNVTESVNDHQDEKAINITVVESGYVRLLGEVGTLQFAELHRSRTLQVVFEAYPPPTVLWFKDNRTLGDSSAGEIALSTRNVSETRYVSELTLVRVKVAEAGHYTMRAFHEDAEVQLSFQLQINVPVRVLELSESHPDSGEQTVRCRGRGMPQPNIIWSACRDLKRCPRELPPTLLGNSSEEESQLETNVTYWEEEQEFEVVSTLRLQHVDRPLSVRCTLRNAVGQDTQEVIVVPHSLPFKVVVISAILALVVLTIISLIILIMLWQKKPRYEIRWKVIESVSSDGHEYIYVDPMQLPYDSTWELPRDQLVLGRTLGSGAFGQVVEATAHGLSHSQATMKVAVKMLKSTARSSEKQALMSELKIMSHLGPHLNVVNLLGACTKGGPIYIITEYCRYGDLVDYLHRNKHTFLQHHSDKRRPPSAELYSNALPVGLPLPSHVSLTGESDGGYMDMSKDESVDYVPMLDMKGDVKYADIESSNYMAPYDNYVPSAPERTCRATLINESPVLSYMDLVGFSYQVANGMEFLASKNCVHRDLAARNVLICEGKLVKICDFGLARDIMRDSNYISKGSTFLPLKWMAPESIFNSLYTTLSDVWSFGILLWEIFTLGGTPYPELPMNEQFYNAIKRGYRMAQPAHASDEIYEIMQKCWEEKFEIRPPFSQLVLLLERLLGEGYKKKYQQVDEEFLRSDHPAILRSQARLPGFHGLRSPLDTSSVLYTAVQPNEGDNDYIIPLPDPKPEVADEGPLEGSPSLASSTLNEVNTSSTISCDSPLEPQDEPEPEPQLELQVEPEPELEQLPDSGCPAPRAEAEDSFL
Outline: as §1

[4] = target: CSF1R (Homo sapiens (Human), UniProt P07333); assay: Inhibition of CSF1R kinase activity (HTRF KinEASE-TK); conditions: biochemical, HTRF KinEASE-TK
Sequence of CSF1R (P07333 20-972): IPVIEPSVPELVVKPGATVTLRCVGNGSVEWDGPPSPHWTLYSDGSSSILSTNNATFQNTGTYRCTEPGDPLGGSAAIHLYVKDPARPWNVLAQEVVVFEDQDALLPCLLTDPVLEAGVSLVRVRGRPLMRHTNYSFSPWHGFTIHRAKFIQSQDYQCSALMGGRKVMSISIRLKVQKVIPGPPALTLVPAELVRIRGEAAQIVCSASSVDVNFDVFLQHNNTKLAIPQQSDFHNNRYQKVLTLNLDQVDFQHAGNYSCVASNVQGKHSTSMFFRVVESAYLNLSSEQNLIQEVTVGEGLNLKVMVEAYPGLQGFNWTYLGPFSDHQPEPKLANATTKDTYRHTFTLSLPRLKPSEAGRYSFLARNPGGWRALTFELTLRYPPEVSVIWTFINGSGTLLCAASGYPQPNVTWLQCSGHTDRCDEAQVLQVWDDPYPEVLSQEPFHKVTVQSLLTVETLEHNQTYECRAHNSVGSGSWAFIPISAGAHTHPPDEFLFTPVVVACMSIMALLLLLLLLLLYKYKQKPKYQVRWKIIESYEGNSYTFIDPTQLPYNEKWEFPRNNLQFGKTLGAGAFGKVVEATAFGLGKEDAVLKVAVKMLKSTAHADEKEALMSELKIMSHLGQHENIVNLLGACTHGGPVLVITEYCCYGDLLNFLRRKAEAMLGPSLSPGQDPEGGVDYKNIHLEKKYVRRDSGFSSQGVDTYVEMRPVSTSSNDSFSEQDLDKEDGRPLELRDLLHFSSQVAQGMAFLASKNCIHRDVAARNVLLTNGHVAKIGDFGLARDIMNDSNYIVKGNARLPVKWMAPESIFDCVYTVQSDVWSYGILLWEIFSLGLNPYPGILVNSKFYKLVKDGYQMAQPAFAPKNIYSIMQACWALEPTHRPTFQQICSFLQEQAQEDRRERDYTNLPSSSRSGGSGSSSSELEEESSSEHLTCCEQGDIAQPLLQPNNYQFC
Outline: as §1

[5] = target: FLT3 (Homo sapiens (Human), UniProt P36888); assay: Inhibition of FLT3 kinase activity (HTRF KinEASE-TK); format: biochemical; conditions: biochemical, HTRF KinEASE-TK
Sequence of FLT3 (P36888 27-993): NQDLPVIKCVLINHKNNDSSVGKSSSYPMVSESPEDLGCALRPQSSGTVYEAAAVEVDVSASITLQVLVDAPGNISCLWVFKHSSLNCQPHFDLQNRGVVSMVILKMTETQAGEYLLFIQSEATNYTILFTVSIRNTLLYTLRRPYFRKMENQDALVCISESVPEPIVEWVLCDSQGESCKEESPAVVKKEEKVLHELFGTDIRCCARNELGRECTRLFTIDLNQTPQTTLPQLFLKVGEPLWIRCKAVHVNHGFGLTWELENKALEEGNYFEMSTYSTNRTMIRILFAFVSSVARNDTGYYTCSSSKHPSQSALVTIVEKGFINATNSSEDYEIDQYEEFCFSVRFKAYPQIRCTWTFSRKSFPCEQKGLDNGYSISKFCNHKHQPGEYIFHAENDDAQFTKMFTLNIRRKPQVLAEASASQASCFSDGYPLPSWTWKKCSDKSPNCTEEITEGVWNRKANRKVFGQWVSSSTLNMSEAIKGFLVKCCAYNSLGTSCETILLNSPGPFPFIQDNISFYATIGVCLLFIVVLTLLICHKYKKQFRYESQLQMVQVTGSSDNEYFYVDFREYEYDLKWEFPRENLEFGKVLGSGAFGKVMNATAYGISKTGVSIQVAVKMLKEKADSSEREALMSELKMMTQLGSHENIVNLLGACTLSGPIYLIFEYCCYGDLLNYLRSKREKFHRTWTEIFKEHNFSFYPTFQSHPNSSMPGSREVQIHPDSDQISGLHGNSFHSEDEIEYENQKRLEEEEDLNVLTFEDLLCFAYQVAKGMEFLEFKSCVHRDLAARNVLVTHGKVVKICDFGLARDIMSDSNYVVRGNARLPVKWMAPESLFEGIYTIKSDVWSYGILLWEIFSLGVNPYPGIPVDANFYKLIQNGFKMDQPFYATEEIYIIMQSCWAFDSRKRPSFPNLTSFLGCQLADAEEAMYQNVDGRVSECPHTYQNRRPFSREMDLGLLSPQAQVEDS
Outline: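 FLT3 tyrosine kinase activity was measured with the HTRF KinEASE-TK kit by following phosphorylation of a biotinylated TK peptide. After the 45 min reaction, 10 μL of detection mix was added: 0.2 μM (2×) Streptavidin-XL665 and 2 μM (2×) TK-Antibody-Cryptate in detection buffer. After 60 min, TR-FRET was read on an Envision as the 665 nm/620 nm emission ratio with 320 nm excitation.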

[6] = test system: Phospho-KIT (Y703) in M07e cells; assay: Phospho-KIT (Y703) cellular assay in M07e cells; format: cell-based; conditions: M-07e; Phospho-KIT (Y703), M07e cells; read-out: M07e Cell IC50
Outline: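 Serum-starved M07e cells preincubated 50 min at 37° C with 11-point half-log compound titration, then stimulated 10 min with SCF at 90.9 ng/mL final. Fixed, permeabilized cells stained for phospho-KIT Y703 and read by flow cytometry (live-gated geometric mean); IC50 by 4-parameter fit normalized to DMSO and positive control.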

Sequence of c-Kit (P10721 26-976): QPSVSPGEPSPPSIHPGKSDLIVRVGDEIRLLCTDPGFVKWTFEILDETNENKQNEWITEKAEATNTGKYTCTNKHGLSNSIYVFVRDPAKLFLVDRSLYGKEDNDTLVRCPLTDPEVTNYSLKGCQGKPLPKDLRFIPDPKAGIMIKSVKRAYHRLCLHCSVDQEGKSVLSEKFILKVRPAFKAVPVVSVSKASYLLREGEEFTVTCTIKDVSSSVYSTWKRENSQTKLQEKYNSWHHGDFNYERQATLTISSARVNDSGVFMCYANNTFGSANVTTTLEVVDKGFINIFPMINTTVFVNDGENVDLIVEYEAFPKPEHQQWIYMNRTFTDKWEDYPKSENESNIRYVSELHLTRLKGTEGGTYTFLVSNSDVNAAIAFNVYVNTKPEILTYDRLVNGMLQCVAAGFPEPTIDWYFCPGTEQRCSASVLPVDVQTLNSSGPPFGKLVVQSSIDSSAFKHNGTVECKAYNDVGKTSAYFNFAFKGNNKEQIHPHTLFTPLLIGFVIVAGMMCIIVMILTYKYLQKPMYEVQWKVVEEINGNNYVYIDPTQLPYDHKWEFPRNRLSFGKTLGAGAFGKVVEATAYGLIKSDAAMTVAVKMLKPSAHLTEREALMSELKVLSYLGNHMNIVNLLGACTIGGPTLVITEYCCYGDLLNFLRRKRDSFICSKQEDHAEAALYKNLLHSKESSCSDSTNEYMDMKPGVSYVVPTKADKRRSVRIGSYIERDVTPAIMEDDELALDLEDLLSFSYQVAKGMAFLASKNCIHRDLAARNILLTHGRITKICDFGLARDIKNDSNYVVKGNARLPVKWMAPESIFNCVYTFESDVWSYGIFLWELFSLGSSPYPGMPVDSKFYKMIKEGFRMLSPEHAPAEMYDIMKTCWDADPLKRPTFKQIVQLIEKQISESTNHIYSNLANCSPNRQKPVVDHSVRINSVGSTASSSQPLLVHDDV

SMILES | IC50 [1] | IC50 [2] | IC50 [3] | IC50 [4] | IC50 [5] | IC50 [6]
Nc1ncc(C(=O)Nc2cc(C(=O)Nc3ccc(OC(F)(F)F)cn3)c(F)cc2F)s1 [Example 210, 2-Amino-N-[2,4-difluoro-5-[[5-(trifluoromethoxy)pyridin-2-yl]carbamoyl]phenyl]-1,3-thiazole-5-carboxamide] | < 100 nM | > 1000 nM | 100 to 1000 nM | 100 to 1000 nM | > 1000 nM | < 100 nM
CCOc1ccc(NC(=O)c2cc(NC(=O)c3cnc(N)s3)c(F)cc2F)nc1 [Example 212, 2-Amino-N-[5-[(5-ethoxypyridin-2-yl)carbamoyl]-2,4-difluorophenyl]-1,3-thiazole-5-carboxamide] | < 100 nM | > 1000 nM | > 1000 nM | > 1000 nM | > 1000 nM | < 100 nM
Nc1ncc(C(=O)Nc2cc(C(=O)Nc3ccc(OCC(F)F)cn3)c(F)cc2F)s1 [Example 213, 2-Amino-N-[5-[[5-(2,2-difluoroethoxy)pyridin-2-yl]carbamoyl]-2,4-difluorophenyl]-1,3-thiazole-5-carboxamide] | < 100 nM | > 1000 nM | > 1000 nM | > 1000 nM | > 1000 nM | < 100 nM
COCc1ccc(NC(=O)c2cc(NC(=O)c3cnc(N)s3)c(F)cc2F)nc1 [Example 215, 2-Amino-N-[2,4-difluoro-5-[[5-(methoxymethyl)pyridin-2-yl]carbamoyl]phenyl]-1,3-thiazole-5-carboxamide] | 100 to 1000 nM | > 1000 nM | > 1000 nM | > 1000 nM | > 1000 nM | > 1000 nM
Nc1ncc(C(=O)Nc2cc(C(=O)Nc3ccc(C(F)(F)F)cn3)c(F)cc2F)s1 [Example 216, 2-Amino-N-[2,4-difluoro-5-[[5-(trifluoromethyl)pyridin-2-yl]carbamoyl]phenyl]-1,3-thiazole-5-carboxamide] | < 100 nM | > 1000 nM | > 1000 nM | 100 to 1000 nM | > 1000 nM | < 100 nM
Nc1ncc(C(=O)Nc2cc(C(=O)Nc3ccc(C(F)F)cn3)c(F)cc2F)s1 [Example 217, 2-Amino-N-[5-[[5-(difluoromethyl)pyridin-2-yl]carbamoyl]-2,4-difluorophenyl]-1,3-thiazole-5-carboxamide] | < 100 nM | > 1000 nM | > 1000 nM | > 1000 nM | > 1000 nM | < 100 nM
CC(C)Oc1ccc(NC(=O)c2cc(NC(=O)c3cnc(N)s3)c(F)cc2F)nc1 [Example 218, 2-Amino-N-[2,4-difluoro-5-[(5-propan-2-yloxypyridin-2-yl)carbamoyl]phenyl]-1,3-thiazole-5-carboxamide] | < 100 nM | > 1000 nM | > 1000 nM | > 1000 nM | > 1000 nM | < 100 nM
Nc1ncc(C(=O)Nc2cc(C(=O)Nc3ccc(OC(F)F)cn3)c(F)cc2F)s1 [Example 219, 2-Amino-N-[5-[[5-(difluoromethoxy)pyridin-2-yl]carbamoyl]-2,4-difluorophenyl]-1,3-thiazole-5-carboxamide] | < 100 nM | > 1000 nM | > 1000 nM | > 1000 nM | > 1000 nM | < 100 nM
Nc1ncc(C(=O)Nc2cc(C(=O)Nc3ccc(OCC(F)(F)F)cn3)c(F)cc2F)s1 [Example 220, 2-Amino-N-[2,4-difluoro-5-[[5-(2,2,2-trifluoroethoxy)pyridin-2-yl]carbamoyl]phenyl]-1,3-thiazole-5-carboxamide] | < 100 nM | > 1000 nM | > 1000 nM | > 1000 nM | > 1000 nM | < 100 nM
Cc1cc(F)c(C(=O)Nc2ccc(C(F)F)cn2)cc1NC(=O)c1cnc(N)s1 [Example 226, 2-Amino-N-[5-[[5-(difluoromethyl)pyridin-2-yl]carbamoyl]-4-fluoro-2-methylphenyl]-1,3-thiazole-5-carboxamide] | < 100 nM | > 1000 nM | 100 to 1000 nM | 100 to 1000 nM | > 1000 nM | < 100 nM

The remaining lines, values ahead:

IC50 [1] | IC50 [2] | IC50 [3] | IC50 [4] | IC50 [5] | IC50 [6] | SMILES
< 100 nM | > 1000 nM | > 1000 nM | > 1000 nM | > 1000 nM | < 100 nM | CCOCc1ccc(NC(=O)c2cc(NC(=O)c3cnc(N)s3)c(C)cc2F)nc1 [Example 196, 2-Amino-N-[5-[[5-(ethoxymethyl)pyridin-2-yl]carbamoyl]-4-fluoro-2-methylphenyl]-1,3-thiazole-5-carboxamide]
< 100 nM | > 1000 nM | > 1000 nM | > 1000 nM | > 1000 nM | < 100 nM | COCc1ccc(NC(=O)c2cc(NC(=O)c3cnc(N)s3)c(Cl)cc2F)nc1 [Example 202, 2-Amino-N-[2-chloro-4-fluoro-5-[[5-(methoxymethyl)pyridin-2-yl]carbamoyl]phenyl]-1,3-thiazole-5-carboxamide]
< 100 nM | > 1000 nM | 100 to 1000 nM | 100 to 1000 nM | > 1000 nM | < 100 nM | Nc1ncc(C(=O)Nc2cc(C(=O)Nc3ncc(C4CC4)cn3)c(F)cc2Cl)s1 [Example 203, 2-Amino-N-[2-chloro-5-[(5-cyclopropylpyrimidin-2-yl)carbamoyl]-4-fluorophenyl]-1,3-thiazole-5-carboxamide]
< 100 nM | 100 to 1000 nM | 100 to 1000 nM | 100 to 1000 nM | > 1000 nM | < 100 nM | Nc1ncc(C(=O)Nc2cc(C(=O)Nc3cnc(C4CC4)nc3)c(F)cc2Cl)s1 [Example 204, 2-Amino-N-[2-chloro-5-[(2-cyclopropylpyrimidin-5-yl)carbamoyl]-4-fluorophenyl]-1,3-thiazole-5-carboxamide]
< 100 nM | 100 to 1000 nM | < 100 nM | < 100 nM | > 1000 nM | < 100 nM | Nc1ncc(C(=O)Nc2cc(C(=O)Nc3cnc(C4CC4)cn3)c(F)cc2Cl)s1 [Example 205, 2-Amino-N-[2-chloro-5-[(5-cyclopropylpyrazin-2-yl)carbamoyl]-4-fluorophenyl]-1,3-thiazole-5-carboxamide]
< 100 nM | > 1000 nM | 100 to 1000 nM | 100 to 1000 nM | > 1000 nM | < 100 nM | Nc1ncc(C(=O)Nc2cc(C(=O)Nc3ccc(C(F)F)cn3)c(F)cc2Cl)s1 [Example 206, 2-Amino-N-[2-chloro-5-[[5-(difluoromethyl)pyridin-2-yl]carbamoyl]-4-fluorophenyl]-1,3-thiazole-5-carboxamide]
< 100 nM | > 1000 nM | 100 to 1000 nM | 100 to 1000 nM | > 1000 nM | < 100 nM | Nc1ncc(C(=O)Nc2cc(C(=O)Nc3ccc(OC(F)F)cn3)c(F)cc2Cl)s1 [Example 208, 2-Amino-N-[2-chloro-5-[[5-(difluoromethoxy)pyridin-2-yl]carbamoyl]-4-fluorophenyl]-1,3-thiazole-5-carboxamide]
< 100 nM | > 1000 nM | 100 to 1000 nM | 100 to 1000 nM | > 1000 nM | < 100 nM | Nc1ncc(C(=O)Nc2cc(C(=O)Nc3ccc(OC4CC4)cn3)c(F)cc2Cl)s1 [Example 209, 2-Amino-N-[2-chloro-5-[(5-cyclopropyloxypyridin-2-yl)carbamoyl]-4-fluorophenyl]-1,3-thiazole-5-carboxamide]
